According to patent US7217530B2 (priority 2002, dated 2007):

Assays:
[1] = test system: PrP^sc
[2] = molecular target: recombinant PrP protein (recPrP) (Homo sapiens, UniProt P04156); assay type: physicochemical

In the case of “p-sulfonato-3,7-(2-carboxy-methyloxy)-calix-[6]-arene [AML1]”, the “dilution up to which detection of PrP^sc in the sample is possible” value [1] is reported as 1/32, the “detection of the prion increased over detection of the same protein in the absence of AML1” value ([1]; immunoblotting, FIG. 1, free AML1) is reported as “at least four” and the “structures observed for recPrP films in the presence of AML” value ([2]; SPM images, FIGS. 3 and 4) is reported as “modified sequentially”. The Average height ([2]; dried film on mica, SPM) was 217.7, the Maximum height value ([2]; dried film on mica, SPM) was 448.9 and the “RMS (root mean square rugosity)” value ([2]; dried film on mica, SPM) was 58.7 nm. The “Ra (average rugosity)” value ([2]; dried film on mica, SPM) was 48 nm.
